Measurements published in patent US10407455B2, “Phillygenin glucuronic acid derivative as well as preparation method and application thereof” (priority 2015, dated 2019).
Values joined by “and” are separate entries in the source; they are usually repeats but may differ in a detail not shown here. Equal entries are not always repeated. Where two headings read alike, the source gives them in different places. Marks after values point to notes of the source that are not given here.

Tests used:
Influenza virus [1] = experiment: Influences of drugs on virus-induced CPE (antiviral effective rate, MTT), influenza virus; type: cell-based
Parainfluenza virus [2] = experiment: Influences of drugs on virus-induced CPE (antiviral effective rate, MTT), parainfluenza virus; type: cell-based; conditions: Vero cells, 100TCID50, drug at nearly the maximum non-cytotoxic concentration
[3] = test system: Coxsackie virus A16 (CoxA16); experiment: Influences of drugs on virus-induced CPE (antiviral effective rate, MTT), CoxA16; type: cell-based; conditions: CoxA16, Vero cells, 100TCID50, drug at nearly the maximum non-cytotoxic concentration
[4] = test system: respiratory syncytial virus (RSV); experiment: Influences of drugs on virus-induced CPE (antiviral effective rate, MTT), RSV; type: cell-based; conditions: Vero cells, 100TCID50, drug at nearly the maximum non-cytotoxic concentration
[5] = test system: herpes simplex virus I (HSV-I); experiment: Influences of drugs on virus-induced CPE (antiviral effective rate, MTT), HSV-I; type: cell-based; conditions: Vero cells, 100TCID50, drug at nearly the maximum non-cytotoxic concentration
adenovirus (AdV) = experiment: Influences of drugs on virus-induced CPE (antiviral effective rate, MTT), ADV; type: cell-based; conditions: Vero cells, 100TCID50, drug at nearly the maximum non-cytotoxic concentration
enterovirus EV71 = experiment: Influences of drugs on virus-induced CPE (antiviral effective rate, MTT), EV71; type: cell-based; conditions: EV71, Vero cells, 100TCID50, drug at nearly the maximum non-cytotoxic concentration
[6] = test system: Coxsackie virus B3 (CVB3); experiment: Influences of drugs on virus-induced CPE (antiviral effective rate, MTT), CVB3; type: cell-based; conditions: CVB3, Vero cells, 100TCID50, drug at nearly the maximum non-cytotoxic concentration
influenza virus [7] = type: in vivo, Kunming mice; conditions: for Lung index (X ± S) / Lung index inhibition rate (%): mice infected with influenza virus, 5 days, n = 3; for inhibitory effect on the virus and the mouse virus pneumonia caused by it (in words): in vivo
parainfluenza virus [8] = type: in vivo, Kunming mice
influenza virus [9] = type: in vivo, Kunming mice; conditions: lung suspension, mice infected with influenza virus, 5 days, n = 3
parainfluenza virus [10] = type: in vivo, Kunming mice; conditions: lung suspension, mice infected with parainfluenza virus, 5 days, n = 3
Vero cells = conditions: 72 hours, MTT, Probit regression
Source text: Performing subculture on Vero cells for 1-2 days to form sheets and have clear boundaries, performing trypsin digestion when stereoscopic impression and diopter are high, completely absorbing digestive juice when needle tip shaped holes occur on cells surfaces, blowing away the cells with milliliters of culture solution, counting, diluting to the quantity of 5×10^7 cells/L with the culture solution (DMEM containing 10% fetal calf serum), inoculating in a 96-well culture plate, and enabling the cells to grow to a single layer.
Cytotoxicity test: drugs are diluted with a maintenance solution (DMEM containing 2% fetal calf serum) according to concentrations shown in Table 1-1, and are used for cytotoxicity determination.

[11] = Influenza virus, Vero cells, 100TCID50, drug at nearly the maximum non-cytotoxic concentration
[12] = mice infected with parainfluenza virus, 13.0 mg/kg/d (Compound I: High-dose group) intragastric, 5 days, n = 3
[13] = High-dose group 10.0 mg/kg/d intragastric
[14] = Low-dose group 2.25 mg/kg/d intragastric
[15] = Medium-dose group 5.0 mg/kg/d intragastric

CCOC(=O)C1=C[C@@H](OC(CC)CC)[C@H](NC(C)=O)[C@@H](N)C1 [Oseltamivir phosphate, reference compound]
antiviral effective rate (ER %) (Influenza virus [1]; [11]): 82.19** % | antiviral effective rate (ER %) (Parainfluenza virus [2]): 92.11** % | antiviral effective rate (ER %) [3]: 2.94% | antiviral effective rate (ER %) [4]: 39.22% | antiviral effective rate (ER %) [5]: 63.24** % | antiviral effective rate (ER %) (adenovirus (AdV)): 12.12% | antiviral effective rate (ER %) (enterovirus EV71): 48.65% | antiviral effective rate (ER %) [6]: 1.53% | Lung index (X ± S) (influenza virus [7]; 19.5 mg/kg/d intragastric): 1.176 ± 0.045 | Lung index inhibition rate (%) (influenza virus [7]; 19.5 mg/kg/d intragastric): 19.76% | Lung index (X ± S) (parainfluenza virus [8]; mouse, in vivo, 19.5 mg/kg/day): 1.241 ± 0.046 | Lung index inhibition rate (%) (parainfluenza virus [8]; mouse, in vivo, 19.5 mg/kg/day): 21.83% | Hemagglutination titer (InX) (influenza virus [9]; 19.5 mg/kg/d intragastric): 20.47 ± 1.104 | Inhibition rate (%) of hemagglutination titer (influenza virus [9]; 19.5 mg/kg/d intragastric): 35.26% | Hemagglutination titer (InX) (parainfluenza virus [10]; 19.5 mg/kg/d intragastric): 23.24 ± 1.242 | Inhibition rate (%) of hemagglutination titer (parainfluenza virus [10]; 19.5 mg/kg/d intragastric): 31.14% | Maximum non-cytotoxic concentration (TC0) (Vero cells): 0.27 g/L | Semi-cytotoxic concentration (TC50) (Vero cells): 834 µg/mL

COc1ccc(C2OCC3C(c4ccc(OC5OC(C(=O)O)C(O)C(O)C5O)c(O)c4)OCC23)cc1OC (stereo not shown) [Compound II]
antiviral effective rate (ER %) (Influenza virus [1]; [11]): 92.74** % | antiviral effective rate (ER %) (Parainfluenza virus [2]): 90.13** % | antiviral effective rate (ER %) [3]: 99.25** % | antiviral effective rate (ER %) [4]: 81.14** % | antiviral effective rate (ER %) [5]: 93.35** % | antiviral effective rate (ER %) (adenovirus (AdV)): 20.46* % | antiviral effective rate (ER %) (enterovirus EV71): 54.32% | antiviral effective rate (ER %) [6]: 11.18% | inhibitory effect on the virus and the mouse virus pneumonia caused by it (in words) (influenza virus [7]): obvious inhibitory effects | inhibitory effect on the virus and the mouse virus pneumonia caused by it (in words) (parainfluenza virus [8]; mouse, in vivo): obvious inhibitory effects | Maximum non-cytotoxic concentration (TC0) (Vero cells): 0.103 g/L | Semi-cytotoxic concentration (TC50) (Vero cells): 412 µg/mL

COc1cc([C@H]2OC[C@H]3[C@@H]2CO[C@H]3c2ccc(OC)c(OC)c2)ccc1O [Phillygenin]
antiviral effective rate (ER %) (Influenza virus [1]; [11]): 88.17** % | antiviral effective rate (ER %) (Parainfluenza virus [2]): 94.06** % | antiviral effective rate (ER %) [3]: 97.03** % | antiviral effective rate (ER %) [4]: 81.41** % | antiviral effective rate (ER %) [5]: 85.36** % | antiviral effective rate (ER %) (adenovirus (AdV)): 14.25* % | antiviral effective rate (ER %) (enterovirus EV71): 32.27% | antiviral effective rate (ER %) [6]: 2.29% | Lung index (X ± S) (influenza virus [7]; 13.0 mg/kg/d intragastric): 1.208 ± 0.025 | Lung index inhibition rate (%) (influenza virus [7]; 13.0 mg/kg/d intragastric): 11.67% | Lung index (X ± S) (parainfluenza virus [8]; [12]): 1.349 ± 0.046 | Lung index inhibition rate (%) (parainfluenza virus [8]; [12]): 14.56% | Hemagglutination titer (InX) (influenza virus [9]; 13.0 mg/kg/d intragastric): 21.15 ± 1.024 | Inhibition rate (%) of hemagglutination titer (influenza virus [9]; 13.0 mg/kg/d intragastric): 29.15% | Hemagglutination titer (InX) (parainfluenza virus [10]; 13.0 mg/kg/d intragastric): 23.63 ± 1.156 | Inhibition rate (%) of hemagglutination titer (parainfluenza virus [10]; 13.0 mg/kg/d intragastric): 27.75% | Maximum non-cytotoxic concentration (TC0) (Vero cells): 0.012 g/L | Semi-cytotoxic concentration (TC50) (Vero cells): 293 µg/mL

COc1cc(C2OCC3C(c4ccc(OC5OC(C(=O)O)C(O)C(O)C5O)c(OC)c4)OCC23)ccc1O (stereo not shown) [Compound I]
antiviral effective rate (ER %) (Influenza virus [1]; [11]): 95.81** % | antiviral effective rate (ER %) (Parainfluenza virus [2]): 96.24** % | antiviral effective rate (ER %) [3]: 100.00** % | antiviral effective rate (ER %) [4]: 83.21** % | antiviral effective rate (ER %) [5]: 91.23** % | antiviral effective rate (ER %) (adenovirus (AdV)): 21.26* % | antiviral effective rate (ER %) (enterovirus EV71): 52.15% | antiviral effective rate (ER %) [6]: 10.16% | Lung index (X ± S) (influenza virus [7]; [13]): 1.145 ± 0.037 | Lung index inhibition rate (%) (influenza virus [7]; [13]): 22.82% | Lung index (X ± S) (influenza virus [7]; [14]): 1.225 ± 0.034 | Lung index inhibition rate (%) (influenza virus [7]; [14]): 17.85% | Lung index (X ± S) (influenza virus [7]; [15]): 1.187 ± 0.028 | Lung index inhibition rate (%) (influenza virus [7]; [15]): 20.03% | inhibitory effect on the virus and the mouse virus pneumonia caused by it (in words) (influenza virus [7]): obvious inhibitory effects | Lung index (X ± S) (parainfluenza virus [8]; mouse, in vivo): 1.277 ± 0.054 and 1.318 ± 0.028 | Lung index inhibition rate (%) (parainfluenza virus [8]; mouse, in vivo): 19.73% and 16.94% | inhibitory effect on the virus and the mouse virus pneumonia caused by it (in words) (parainfluenza virus [8]; mouse, in vivo): obvious inhibitory effects | Lung index (X ± S) (parainfluenza virus [8]; mouse, in vivo, 13 mg/kg/day): 1.239 ± 0.037 | Lung index inhibition rate (%) (parainfluenza virus [8]; mouse, in vivo, 13 mg/kg/day): 22.26% | Hemagglutination titer (InX) (influenza virus [9]; [13]): 19.24 ± 0.513 | Inhibition rate (%) of hemagglutination titer (influenza virus [9]; [13]): 40.28% | Hemagglutination titer (InX) (influenza virus [9]; [14]): 22.16 ± 1.270 | Inhibition rate (%) of hemagglutination titer (influenza virus [9]; [14]): 31.26% | Hemagglutination titer (InX) (influenza virus [9]; [15]): 20.37 ± 0.285 | Inhibition rate (%) of hemagglutination titer (influenza virus [9]; [15]): 36.32% | Hemagglutination titer (InX) (parainfluenza virus [10]; [13]): 19.68 ± 0.638 | Inhibition rate (%) of hemagglutination titer (parainfluenza virus [10]; [13]): 38.36% | Hemagglutination titer (InX) (parainfluenza virus [10]; [14]): 21.62 ± 0.553 | Inhibition rate (%) of hemagglutination titer (parainfluenza virus [10]; [14]): 33.61% | Hemagglutination titer (InX) (parainfluenza virus [10]; [15]): 20.47 ± 0.583 | Inhibition rate (%) of hemagglutination titer (parainfluenza virus [10]; [15]): 36.32% | Maximum non-cytotoxic concentration (TC0) (Vero cells): 0.106 g/L | Semi-cytotoxic concentration (TC50) (Vero cells): 482 µg/mL

COc1cc(C2OCC3C(c4ccc5c(c4)OCO5)OCC23)ccc1OC1OC(C(=O)O)C(O)C(O)C1O [Compound III, 33,34-Methylenedioxy phillygenin-8-O-β-D-glucuronide]
antiviral effective rate (ER %) (Influenza virus [1]; [11]): 91.35** % | antiviral effective rate (ER %) (Parainfluenza virus [2]): 92.22** % | antiviral effective rate (ER %) [3]: 100.00** % | antiviral effective rate (ER %) [4]: 86.18** % | antiviral effective rate (ER %) [5]: 96.06** % | antiviral effective rate (ER %) (adenovirus (AdV)): 22.17* % | antiviral effective rate (ER %) (enterovirus EV71): 51.64% | antiviral effective rate (ER %) [6]: 9.63% | inhibitory effect on the virus and the mouse virus pneumonia caused by it (in words) (influenza virus [7]): obvious inhibitory effects | inhibitory effect on the virus and the mouse virus pneumonia caused by it (in words) (parainfluenza virus [8]; mouse, in vivo): obvious inhibitory effects | Maximum non-cytotoxic concentration (TC0) (Vero cells): 0.0906 g/L | Semi-cytotoxic concentration (TC50) (Vero cells): 435 µg/mL

NC(=O)c1ncn([C@@H]2O[C@H](CO)[C@@H](O)[C@H]2O)n1 [Ribavirin, reference compound]
antiviral effective rate (ER %) (Influenza virus [1]): 56.44** % | antiviral effective rate (ER %) (Parainfluenza virus [2]): 95.13** % | antiviral effective rate (ER %) [3]: 0.72% | antiviral effective rate (ER %) [4]: 52.15* % | antiviral effective rate (ER %) [5]: 64.65** % | antiviral effective rate (ER %) (adenovirus (AdV)): 0.47% | antiviral effective rate (ER %) (enterovirus EV71): 4.03** % | antiviral effective rate (ER %) [6]: 12.14% | Hemagglutination titer (InX) (influenza virus [9]; 58.5 mg/kg/d intragastric): 21.87 ± 1.050 | Inhibition rate (%) of hemagglutination titer (influenza virus [9]; 58.5 mg/kg/d intragastric): 32.35% | Hemagglutination titer (InX) (parainfluenza virus [10]; 58.5 mg/kg/d intragastric): 24.32 ± 1.123 | Inhibition rate (%) of hemagglutination titer (parainfluenza virus [10]; 58.5 mg/kg/d intragastric): 23.25%
